This is an account of results in ChEMBL document CHEMBL1158913, “Peroxy Aliphatic Esters from the Sponge Plakortis lita” (1990).

The assay concerns P388. Description: Cytotoxicity against mouse P388 cells. Type of assay: functional. Particulars: read-out: ED50 (the source's name).

Consider `CCCCCCCCCCCCCCCC[C@@]1(OC)C=C[C@@H](CC(=O)OC)OO1` [CHONDRILLIN], for which the EC50 was greater than 10 µg/mL.

With `C/C=C/C=C/CCCCCCCCCCC[C@]1(OC)C=C[C@H](CC(=O)OC)OO1`, the EC50 is greater than 10 µg/mL.
